{"source": "patent US20230165242A1", "about": "“RODENTICIDAL BAIT AND METHOD OF CONTROLLING TARGET HARMFUL RODENTS” (priority 2020, published 2023)", "key": {"[1]": {"tested_on": "Female Sprague-Dawley rats that are homozygotic carriers of the Y139F mutation in the Vkorc1 gene", "assay": "Synergy of difethialone and cholecalciferol on warfarin-resistant female Sprague-Dawley Y139F rats", "format": "in vivo, rat", "conditions": "gavage once a day for 3 days; difethialone 0.125 mg/kg alone, cholecalciferol 7.5 mg/kg alone, or both combined; 22 days of observation", "excerpt": "Female Sprague-Dawley rats that are homozygotic carriers of the Y139F mutation in the Vkorc1 gene, aged 10 weeks, are acclimatized for 5 days in the presence of a conventional solid feed and water in unlimited amounts. These female Sprague-Dawley Y139F rats are fed by gavage once a day for 3 consecutive days with a gavage solution containing difethialone (LIPHATECH, France) and cholecalciferol (Sigma-Aldrich, France) in a solvent consisting of 95% (v/v) of oil and 5% (v/v) of DMSO. During this period of gavage, the rats are fed with a conventional solid feed and water in unlimited amounts. The amounts of difethialone and cholecalciferol administered are 0.125 mg per kilogram of body weight of the rat fed by gavage and 7.5 mg per kilogram of body weight of the rat fed by gavage, respectively. The rats in two control groups, each consisting of OFA-Sprague-Dawley […] rats, are fed by gavage in the same conditions with gavage solutions containing, respectively, difethialone alone so as to administer an amount of difethialone corresponding to 0.125 mg per kilogram of body weight of the rat fed by gavage and cholecalciferol alone so as to administer an amount of cholecalciferol corresponding to 7.5 mg per kilogram of body weight of the rat fed by gavage. The percentage of rats surviving gavage is noted daily for 21 days counting from the first day of gavage. […]"}, "[2]": {"tested_on": "warfarin-sensitive male OFA-Sprague-Dawley rats", "assay": "Synergy of bromadiolone and cholecalciferol, gavage, survival", "format": "in vivo, rat", "conditions": "gavage 5 consecutive days; bromadiolone 0.1 mg/kg alone, cholecalciferol 7.5 mg/kg alone, or both combined; after 20 days of observation", "excerpt": "A group of 10 warfarin-sensitive male OFA-Sprague-Dawley rats (Charles River, L′Arbresles, France), aged 10 weeks and with a body weight between 160 and 180 g, are fed by gavage for 5 consecutive days with a gavage solution containing bromadiolone (LIPHATECH, France) and cholecalciferol (Sigma-Aldrich, France) in a solvent consisting of 95% (v/v) of oil and 5% (v/v) of DMSO. During this period of gavage, the rats are fed with a conventional solid feed and water in unlimited amounts. The rats are fed by gavage with a volume of this gavage solution so as to administer an amount of bromadiolone corresponding to 0.1 mg of bromadiolone per kilogram of body weight of the rat fed by gavage and an amount of cholecalciferol corresponding to 7.5 mg of cholecalciferol per kilogram of body weight of the rat fed by gavage. The rats in two control groups, each consisting of 10 male OFA-Sprague-Dawley rats, are fed by gavage in the same conditions with gavage solutions containing, respectively, bromadiolone alone so as to administer an amount of bromadiolone corresponding to 0.1 mg of bromadiolone per kilogram of body weight of the rat fed by gavage and cholecalciferol alone so as to administer an amount of cholecalciferol corresponding to 7.5 mg of cholecalciferol per kilogram of body weight of the rat fed by gavage. […]"}, "[3]": {"tested_on": "brown rats (Rattus norvegicus) that are homozygotic carriers of the Y139C mutation", "assay": "Relative toxicity of cholecalciferol, single gavage dose, Y139C rats", "format": "in vivo", "conditions": "single gavage dose 30 mg/kg; 20 days", "excerpt": "Warfarin-sensitive Sprague-Dawley rats (20 male rats and 20 female rats), male and female rats that are homozygotic carriers of the L120Q mutation, male and female Sprague-Dawley rats that are homozygotic carriers of the Y139F mutation and male and female brown rats (Rattus norvegicus) that are homozygotic carriers of the Y1 39C mutation are acclimatized for 5 days in the presence of a conventional solid feed and water in unlimited amounts. The rats are fed by gavage with a single dose of a gavage solution containing cholecalciferol (Sigma-Aldrich, France) in a solvent consisting of 95% (v/v) of oil and 5% (v/v) of DMSO. The rats are fed with a conventional solid feed and water in unlimited amounts. The amount of cholecalciferol administered is 30 mg of cholecalciferol per kilogram of body weight of the rat fed by gavage. The percentage of rats surviving gavage for 20 days, counting from the first day of gavage, is noted daily. The results given in Table 4 hereunder describe the mortality observed (“SD”, Sprague-Dawley). The amount of cholecalciferol ingested by the rodents during gavage corresponds to consumption by these rodents of a bait assayed at 300 ppm of cholecalciferol."}}}
{"smiles": "C=C1CC[C@H](O)C/C1=C/C=C1\\CCC[C@]2(C)[C@@H]([C@H](C)CCCC(C)C)CC[C@@H]12", "note": "[cholecalciferol]", "values": [{"measurement": "percentage of rats surviving", "setting": "[1]", "result": 90, "unit": "%"}, {"measurement": "percentage of rats surviving", "setting": "[2]", "result": 70, "unit": "%"}, {"measurement": "Female mortality, %", "setting": "[3]", "result": 0, "unit": "%"}, {"measurement": "Male mortality, %", "setting": "[3]", "result": 30, "unit": "%"}]}
